In PubChem BioAssay AID192 (DTP/NCI, 2004):
Several values for one entry are separate records, joined by “and”; a condition that tells them apart may be missing. Identical values can stand only once. Toxic doses and inconclusive results are not listed.

Tested on: BDF1 mice, B16 melanoma ip, median survival T/C
Assay: NCI In Vivo Anticancer Drug Screen. Data for tumor model B16 Melanoma (intraperitoneal) in B6D2F1 (BDF1) mice
Conditions: endpoint: median survival time, higher = longer survival
Method in brief: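 Each result divides a survival or tumor-size measurement in the compound-treated group by the same measurement in the vehicle group.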

[1] = dose: 200.0 mg/kg/injection, schedule: Q04DX003 (ip), vehicle: saline
[2] = dose: 50.0 mg/kg/injection, schedule: Q01DX009 (ip), vehicle: saline with Tween-80
[3] = dose: 100.0 mg/kg/injection, schedule: Q01DX009 (ip), vehicle: saline with Tween-80
[4] = dose: 200.0 mg/kg/injection, schedule: Q01DX009 (ip), vehicle: saline with Tween-80
[5] = dose: 100.0 mg/kg/injection, schedule: Q01DX009 (ip), vehicle: Klucel (hydroxypropylcellulose) (HPC)

SMILES: C[n+]1ccc(C#N)c2ccccc21
- T/C (dose: 3.75 mg/kg/injection, schedule: Q01DX009 (ip), vehicle: saline): 102 % of control
- T/C (dose: 7.5 mg/kg/injection, schedule: Q01DX009 (ip), vehicle: saline): 93 % of control

SMILES: Cn1c(O)c(C=N)c(=O)[nH]c1=O
- T/C (dose: 75.0 mg/kg/injection, schedule: Q01DX009 (ip), vehicle: Klucel (hydroxypropylcellulose) (HPC)): 90 % of control
- T/C (dose: 300.0 mg/kg/injection, schedule: Q01DX009 (ip), vehicle: Klucel (hydroxypropylcellulose) (HPC)): 90 % of control

SMILES: NC(=S)N/N=C/c1nccc2ccccc12
- T/C (dose: 6.25 mg/kg/injection, schedule: Q01DX009 (ip), vehicle: saline): 153 % of control
- T/C (dose: 9.4 mg/kg/injection, schedule: Q01DX009 (ip), vehicle: saline with Tween-80): 105 % of control and 122 % of control
- T/C (dose: 9.4 mg/kg/injection, schedule: Q04DX003 (ip), vehicle: saline): 122 % of control
- T/C (dose: 18.8 mg/kg/injection, schedule: Q01DX009 (ip), vehicle: saline with Tween-80): 118 % of control and 122 % of control and 124 % of control
- T/C (dose: 25.0 mg/kg/injection, schedule: Q01DX009 (ip), vehicle: saline): 172 % of control
- T/C (dose: 50.0 mg/kg/injection, schedule: Q01DX009 (ip), vehicle: saline): 196 % of control
- T/C (dose: 100.0 mg/kg/injection, schedule: Q01DX009 (ip), vehicle: saline): 155 % of control
- T/C (dose: 150.0 mg/kg/injection, schedule: Q04DX003 (ip), vehicle: saline): 152 % of control

SMILES: O=S(=O)(O)c1ccc2c(O)cc(S(=O)(=O)O)cc2c1
- T/C (dose: 100.0 mg/kg/injection, schedule: Q04DX003 (ip), vehicle: saline): 100 % of control
- T/C [1]: 105 % of control
- T/C (dose: 400.0 mg/kg/injection, schedule: Q04DX003 (ip), vehicle: saline): 108 % of control

SMILES: Ic1ccccc1C[N+]12CN3CN(CN(C3)C1)C2
- T/C [2]: 97 % of control
- T/C [3]: 94 % of control
- T/C [4]: 105 % of control

SMILES: O=C(NC(Cc1ccc(O)cc1)C(=O)O)c1ccccc1 (centres undefined)
- T/C [2]: 105 % of control
- T/C [3]: 100 % of control
- T/C [4]: 89 % of control
- T/C (dose: 400.0 mg/kg/injection, schedule: Q01DX009 (ip), vehicle: saline with Tween-80): 88 % of control

SMILES: O=P1(N(CCCl)CCCl)NCCCO1 (centres undefined)
- T/C (dose: 2.5 mg/kg/injection, schedule: Q01DX009 (ip), vehicle: saline): 102 % of control
- T/C (dose: 5.0 mg/kg/injection, schedule: Q01DX009 (ip), vehicle: saline): 100 % of control
- T/C (dose: 6.25 mg/kg/injection, schedule: Q01DX017 (ip), vehicle: saline): 110 % of control
- T/C (dose: 6.25 mg/kg/injection, schedule: Q02DX009 (ip), vehicle: saline): 107 % of control and 108 % of control
- T/C (dose: 10.0 mg/kg/injection, schedule: Q01DX005 (ip), vehicle: water): 100 % of control
- T/C (dose: 10.0 mg/kg/injection, schedule: Q01DX009 (ip), vehicle: saline): 102 % of control
- T/C (dose: 10.0 mg/kg/injection, schedule: Q01DX009 (ip), vehicle: water): 111 % of control
- T/C (dose: 10.0 mg/kg/injection, schedule: Q04DX003 (ip), vehicle: saline): 114 % of control
- T/C (dose: 12.0 mg/kg/injection, schedule: Q01DX009 (ip), vehicle: saline): 105 % of control
- T/C (dose: 12.5 mg/kg/injection, schedule: Q01DX009 (ip), vehicle: water): 104 % of control
- T/C (dose: 12.5 mg/kg/injection, schedule: Q02DX009 (ip), vehicle: saline): 107 % of control
- T/C (dose: 15.0 mg/kg/injection, schedule: Q04DX003 (ip), vehicle: saline): 107 % of control
- T/C (dose: 20.0 mg/kg/injection, schedule: Q01DX005 (ip), vehicle: water): 111 % of control
- T/C (dose: 20.0 mg/kg/injection, schedule: Q01DX009 (ip), vehicle: saline): 112 % of control
- T/C (dose: 20.0 mg/kg/injection, schedule: Q04DX003 (ip), vehicle: saline): 120 % of control
- T/C (dose: 25.0 mg/kg/injection, schedule: Q01DX001 (ip), vehicle: saline): 103 % of control
- T/C (dose: 25.0 mg/kg/injection, schedule: Q01DX009 (ip), vehicle: Klucel (hydroxypropylcellulose) (HPC)): 107 % of control
- T/C (dose: 25.0 mg/kg/injection, schedule: Q01DX009 (ip), vehicle: saline with Tween-80): 112 % of control
- T/C (dose: 25.0 mg/kg/injection, schedule: Q01DX017 (ip), vehicle: saline): 150 % of control
- T/C (dose: 25.0 mg/kg/injection, schedule: Q02DX009 (ip), vehicle: saline): 114 % of control and 122 % of control and 123 % of control
- T/C (dose: 25.0 mg/kg/injection, schedule: Q04DX003 (ip), vehicle: saline): 119 % of control and 122 % of control
- T/C (dose: 25.0 mg/kg/injection, schedule: Q08DX002 (ip), vehicle: saline): 117 % of control
- T/C (dose: 30.0 mg/kg/injection, schedule: Q01DX009 (ip), vehicle: water): 161 % of control
- T/C (dose: 30.0 mg/kg/injection, schedule: Q04DX003 (ip), vehicle: saline): 114 % of control
- T/C (dose: 38.9 mg/kg/injection, schedule: Q08DX002 (ip), vehicle: saline): 116 % of control
- T/C (dose: 40.0 mg/kg/injection, schedule: Q01DX005 (ip), vehicle: water): 122 % of control
- T/C (dose: 40.0 mg/kg/injection, schedule: Q01DX009 (ip), vehicle: water): 172 % of control
- T/C (dose: 40.0 mg/kg/injection, schedule: Q04DX003 (ip), vehicle: saline): 124 % of control
- T/C (dose: 41.5 mg/kg/injection, schedule: Q04DX003 (ip), vehicle: saline): 120 % of control
- T/C (dose: 50.0 mg/kg/injection, schedule: Q01DX009 (ip), vehicle: water): 159 % of control and 180 % of control
- T/C (dose: 50.0 mg/kg/injection, schedule: Q01DX017 (ip), vehicle: saline): 110 % of control
- T/C (dose: 50.0 mg/kg/injection, schedule: Q04DX003 (ip), vehicle: saline): 124 % of control
- T/C (dose: 50.0 mg/kg/injection, schedule: Q04DX005 (ip), vehicle: saline): 162 % of control
- T/C (dose: 60.0 mg/kg/injection, schedule: Q01DX005 (ip), vehicle: water): 169 % of control
- T/C (dose: 72.0 mg/kg/injection, schedule: Q01DX001 (ip), vehicle: saline): 110 % of control
- T/C (dose: 75.0 mg/kg/injection, schedule: Q01DX001 (ip), vehicle: Klucel (hydroxypropylcellulose) (HPC)): 156 % of control
- T/C (dose: 80.0 mg/kg/injection, schedule: Q04DX003 (ip), vehicle: saline): 159 % of control
- T/C (dose: 93.3 mg/kg/injection, schedule: Q04DX003 (ip), vehicle: saline): 169 % of control
- T/C [5]: 117 % of control
- T/C [3]: 103 % of control and 117 % of control
- T/C (dose: 100.0 mg/kg/injection, schedule: Q02DX009 (ip), vehicle: saline): 91 % of control and 112 % of control
- T/C (dose: 100.0 mg/kg/injection, schedule: Q04DX005 (ip), vehicle: saline): 105 % of control
- T/C (dose: 100.0 mg/kg/injection, schedule: Q08DX003 (ip), vehicle: saline): 166 % of control
- T/C (dose: 108.0 mg/kg/injection, schedule: Q08DX002 (ip), vehicle: saline): 161 % of control
- T/C (dose: 120.0 mg/kg/injection, schedule: Q01DX001 (ip), vehicle: saline): 124 % of control
- T/C (dose: 120.0 mg/kg/injection, schedule: Q04DX003 (ip), vehicle: saline): 163 % of control
- T/C (dose: 140.0 mg/kg/injection, schedule: Q04DX003 (ip), vehicle: saline): 169 % of control
- T/C (dose: 160.0 mg/kg/injection, schedule: Q04DX003 (ip), vehicle: saline): 191 % of control
- T/C (dose: 180.0 mg/kg/injection, schedule: Q08DX002 (ip), vehicle: saline): 192 % of control
- T/C (dose: 200.0 mg/kg/injection, schedule: Q01DX001 (ip), vehicle: water): 121 % of control
- T/C [1]: 111 % of control
- T/C (dose: 210.0 mg/kg/injection, schedule: Q04DX003 (ip), vehicle: saline): 205 % of control
- T/C (dose: 300.0 mg/kg/injection, schedule: Q01DX001 (ip), vehicle: Klucel (hydroxypropylcellulose) (HPC)): 100 % of control
- T/C (dose: 300.0 mg/kg/injection, schedule: Q08DX002 (ip), vehicle: saline): 117 % of control and 220 % of control and 226 % of control
- T/C (dose: 333.0 mg/kg/injection, schedule: Q01DX001 (ip), vehicle: saline): 155 % of control

SMILES: CCCCCCCC(O)CCCCC (centres undefined)
- T/C [5]: 99 % of control
- T/C (dose: 200.0 mg/kg/injection, schedule: Q01DX009 (ip), vehicle: Klucel (hydroxypropylcellulose) (HPC)): 103 % of control
- T/C (dose: 400.0 mg/kg/injection, schedule: Q01DX009 (ip), vehicle: Klucel (hydroxypropylcellulose) (HPC)): 94 % of control

SMILES: COc1ccc(CN(CCOC(=O)c2ccc(OC)cc2)CCN(CCOC(=O)c2ccc(OC)cc2)Cc2ccc(OC)cc2)cc1
- T/C (dose: 3.12 mg/kg/injection, schedule: Q01DX009 (ip), vehicle: other): 100 % of control
- T/C (dose: 6.25 mg/kg/injection, schedule: Q01DX009 (ip), vehicle: other): 89 % of control
- T/C (dose: 12.5 mg/kg/injection, schedule: Q01DX009 (ip), vehicle: other): 90 % of control
- T/C (dose: 25.0 mg/kg/injection, schedule: Q01DX009 (ip), vehicle: other): 92 % of control
